Experimental data reported in ChEMBL document CHEMBL2021812, “Aryltriflates as a Neglected Moiety in Medicinal Chemistry: A Case Study from a Lead Optimization of CXCL8 Inhibitors” (ACS Med Chem Lett, 2011).

How the values were obtained:
[1] = Metabolic stability in rat liver microsomes assessed as compound remaining at 1 uM preincubated for 10 mins measured after 30 mins; format: ADME, Microsome; settings: read-out: Stability
CYP2C9 = CYP2C9 (Homo sapiens, UniProt P11712); assay: Inhibition of CYP2C9 using 7MFC as substrate at 10 uM; format: ADME; settings: probe 7MFC
[2] = Oral bioavailability in Sprague-Dawley rat at 14 mg/kg; format: ADME, organism-based; settings: in vivo
Hepatocyte [3] = assay: Drug metabolism in rat hepatocytes assessed as (R)-2-(4-(trifluoromethylsulfonyloxy)phenyl)propanoic acid level at 10 uM after 15 mins; format: ADME, cell-based; settings: 0.25 h
CYP1A2 = biological target: T1, CYP1A2 (Homo sapiens, UniProt P05177); assay: Inhibition of CYP1A2 using CEC as substrate at 10 uM; format: ADME; settings: probe CEC
T1 sequence (P05177 whole entry): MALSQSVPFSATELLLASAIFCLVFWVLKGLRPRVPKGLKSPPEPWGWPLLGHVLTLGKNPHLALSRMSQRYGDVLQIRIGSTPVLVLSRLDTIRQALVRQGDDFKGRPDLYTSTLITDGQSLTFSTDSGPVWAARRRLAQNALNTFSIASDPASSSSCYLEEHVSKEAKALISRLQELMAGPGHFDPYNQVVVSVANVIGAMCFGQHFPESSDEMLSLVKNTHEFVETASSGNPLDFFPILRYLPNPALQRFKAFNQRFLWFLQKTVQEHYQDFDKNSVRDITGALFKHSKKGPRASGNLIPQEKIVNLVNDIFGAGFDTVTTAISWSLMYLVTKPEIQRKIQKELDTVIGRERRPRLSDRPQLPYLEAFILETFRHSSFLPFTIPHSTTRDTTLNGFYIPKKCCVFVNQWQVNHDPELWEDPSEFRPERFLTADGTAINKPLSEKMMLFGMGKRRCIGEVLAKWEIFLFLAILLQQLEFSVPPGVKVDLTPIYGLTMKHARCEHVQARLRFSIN

CYP2C19 = CYP2C19 (Homo sapiens, UniProt P33261); assay: Inhibition of CYP2C19 using DBF as substrate at 10 uM; format: ADME; settings: probe DBF
Hepatocyte [4] = assay: Drug metabolism in rat hepatocytes assessed as (S)-2-(4-(trifluoromethylsulfonyloxy)phenyl)propanoic acid level at 10 uM after 60 mins; format: ADME, cell-based; settings: 1 h
Hepatocyte [5] = assay: Drug metabolism in rat hepatocytes assessed as (S)-2-(4-(trifluoromethylsulfonyloxy)phenyl)propanoic acid level at 10 uM after 90 mins; format: ADME, cell-based; settings: 1.5 h
[6] = biological target: Interleukin-8 receptors, CXCR1/CXCR2 (Homo sapiens) (UniProt P25025+P25024); assay: Inhibition of CXCR1/2 in human polymorphonucleate cells assessed as inhibition of CXCL8-induced chemotaxis at 10^-8 M incubated for 15 mins prior to CXCL8-induction measured after 45 mins
Hepatocyte [7] = assay: Drug metabolism in rat hepatocytes assessed as (S)-2-(4-(trifluoromethylsulfonyloxy)phenyl)propanoic acid level at 10 uM after 120 mins; format: ADME, cell-based; settings: 2 h
Hepatocyte [8] = assay: Drug metabolism in human hepatocytes assessed as (R)-2-(4-(trifluoromethylsulfonyloxy)phenyl)propanoic acid level at 10 uM after 15 mins; format: ADME, cell-based; settings: 0.25 h
Hepatocyte [9] = assay: Drug metabolism in rat hepatocytes assessed as (S)-2-(4-(trifluoromethylsulfonyloxy)phenyl)propanoic acid level at 10 uM after 30 mins; format: ADME, cell-based; settings: 0.5 h
Hepatocyte [10] = assay: Drug metabolism in human hepatocytes assessed as (R)-2-(4-(trifluoromethylsulfonyloxy)phenyl)propanoic acid level at 10 uM after 120 mins; format: ADME, cell-based; settings: 2 h
[11] = biological target: Voltage-gated inwardly rectifying potassium channel KCNH2 (Homo sapiens, UniProt Q12809); assay: Displacement of [3H]astemizole from human ERG expressed in HEK293 cells at 10 uM for 60 mins by liquid scintillation counting; format: cell-based; settings: hek293, 1 h
Hepatocyte [12] = assay: Drug metabolism in rat hepatocytes assessed as (R)-2-(4-(trifluoromethylsulfonyloxy)phenyl)propanoic acid level at 10 uM after 90 mins; format: ADME, cell-based; settings: 1.5 h
[13] = Elimination half life in Sprague-Dawley rat at 14 mg/kg, iv; format: ADME, organism-based; set-up: dose 14 mg/kg, route intravenous; settings: in vivo, read-out: beta t1/2 (converted)
Hepatocyte [14] = assay: Drug metabolism in human hepatocytes assessed as (S)-2-(4-(trifluoromethylsulfonyloxy)phenyl)propanoic acid level at 10 uM after 120 mins; format: ADME, cell-based; settings: 2 h
CYP2D6 = CYP2D6 (Homo sapiens, UniProt P10635); assay: Inhibition of CYP2D6 using AMMC as substrate at 10 uM; format: ADME; settings: probe AMMC
Hepatocyte [15] = assay: Drug metabolism in rat hepatocytes assessed as (R)-2-(4-(trifluoromethylsulfonyloxy)phenyl)propanoic acid level at 10 uM after 120 mins; format: ADME, cell-based; settings: 2 h
CYP3A4 = CYP3A4 (Homo sapiens, UniProt P08684); assay: Inhibition of CYP3A4 using BFC as substrate at 10 uM; format: ADME; settings: probe BFC
[16] = Clearance in Sprague-Dawley rat at 14 mg/kg, iv; format: ADME, organism-based; set-up: dose 14 mg/kg, route intravenous; settings: in vivo
Hepatocyte [17] = assay: Drug metabolism in human hepatocytes assessed as (S)-2-(4-(trifluoromethylsulfonyloxy)phenyl)propanoic acid level at 10 uM after 15 mins; format: ADME, cell-based; settings: 0.25 h
Hepatocyte [18] = assay: Drug metabolism in rat hepatocytes assessed as (R)-2-(4-(trifluoromethylsulfonyloxy)phenyl)propanoic acid level at 10 uM after 60 mins; format: ADME, cell-based; settings: 1 h
Hepatocyte [19] = assay: Drug metabolism in human hepatocytes assessed as (R)-2-(4-(trifluoromethylsulfonyloxy)phenyl)propanoic acid level at 10 uM after 90 mins; format: ADME, cell-based; settings: 1.5 h
Hepatocyte [20] = assay: Drug metabolism in rat hepatocytes assessed as (R)-2-(4-(trifluoromethylsulfonyloxy)phenyl)propanoic acid level at 10 uM after 30 mins; format: ADME, cell-based; settings: 0.5 h
[21] = Metabolic stability in rat plasma assessed as compound remaining at 1 uM after 1 hr; format: ADME, cell-free; settings: read-out: Stability
Hepatocyte [22] = assay: Drug metabolism in human hepatocytes assessed as (R)-2-(4-(trifluoromethylsulfonyloxy)phenyl)propanoic acid level at 10 uM after 60 mins; format: ADME, cell-based; settings: 1 h
Hepatocyte [23] = assay: Drug metabolism in rat hepatocytes assessed as (S)-2-(4-(trifluoromethylsulfonyloxy)phenyl)propanoic acid level at 10 uM after 15 mins; format: ADME, cell-based; settings: 0.25 h
[24] = Chemical stability of the compound assessed as compound remaining at pH 3.5 after 2 hrs; format: physicochemical; settings: buffer, read-out: Stability
Hepatocyte [25] = assay: Drug metabolism in human hepatocytes assessed as (S)-2-(4-(trifluoromethylsulfonyloxy)phenyl)propanoic acid level at 10 uM after 30 mins; format: ADME, cell-based; settings: 0.5 h
[26] = Dissociation constant, pKa of the compound; format: physicochemical
Hepatocyte [27] = assay: Drug metabolism in human hepatocytes assessed as (S)-2-(4-(trifluoromethylsulfonyloxy)phenyl)propanoic acid level at 10 uM after 60 mins; format: ADME, cell-based; settings: 1 h
Hepatocyte [28] = assay: Drug metabolism in human hepatocytes assessed as (S)-2-(4-(trifluoromethylsulfonyloxy)phenyl)propanoic acid level at 10 uM after 90 mins; format: ADME, cell-based; settings: 1.5 h
[29] = Chemical stability of the compound assessed as compound remaining at pH 9 after 2 hrs; format: physicochemical; settings: buffer, read-out: Stability
Hepatocyte [30] = assay: Drug metabolism in human hepatocytes assessed as (R)-2-(4-(trifluoromethylsulfonyloxy)phenyl)propanoic acid level at 10 uM after 30 mins; format: ADME, cell-based; settings: 0.5 h
[31] = biological target: T2, C-X-C chemokine receptor type 2 (Homo sapiens) (UniProt P25025); assay: Inhibition of CXCR2 in human polymorphonucleate cells assessed as inhibition of CXCL1-induced chemotaxis at 10^-8 M incubated for 15 mins prior to CXCL1-induction measured after 45 mins
T2 sequence (whole entry): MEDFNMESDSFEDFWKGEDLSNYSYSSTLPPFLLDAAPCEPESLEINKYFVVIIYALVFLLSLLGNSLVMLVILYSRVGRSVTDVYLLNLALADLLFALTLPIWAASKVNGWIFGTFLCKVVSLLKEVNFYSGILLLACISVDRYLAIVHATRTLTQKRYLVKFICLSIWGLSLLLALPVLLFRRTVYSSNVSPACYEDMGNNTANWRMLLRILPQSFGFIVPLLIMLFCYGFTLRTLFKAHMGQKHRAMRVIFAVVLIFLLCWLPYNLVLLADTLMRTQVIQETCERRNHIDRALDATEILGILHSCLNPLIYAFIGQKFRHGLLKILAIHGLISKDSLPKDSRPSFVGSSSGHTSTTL

Chain of CYP2C9 (P11712 whole entry): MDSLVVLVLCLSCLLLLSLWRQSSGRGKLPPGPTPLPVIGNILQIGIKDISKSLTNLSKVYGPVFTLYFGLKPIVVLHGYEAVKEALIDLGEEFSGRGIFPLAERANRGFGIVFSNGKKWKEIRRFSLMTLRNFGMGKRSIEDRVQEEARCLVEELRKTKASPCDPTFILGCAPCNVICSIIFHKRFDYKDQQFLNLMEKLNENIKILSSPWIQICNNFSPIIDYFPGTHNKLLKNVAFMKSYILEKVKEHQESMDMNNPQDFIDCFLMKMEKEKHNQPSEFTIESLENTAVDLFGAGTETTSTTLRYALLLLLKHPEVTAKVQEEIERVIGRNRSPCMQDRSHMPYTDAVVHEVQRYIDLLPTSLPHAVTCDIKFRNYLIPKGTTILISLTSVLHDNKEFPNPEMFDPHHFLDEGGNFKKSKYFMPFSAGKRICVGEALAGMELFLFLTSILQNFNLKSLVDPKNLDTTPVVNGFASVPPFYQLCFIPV
Chain of Voltage-gated inwardly rectifying potassium channel KCNH2 (Q12809 whole entry): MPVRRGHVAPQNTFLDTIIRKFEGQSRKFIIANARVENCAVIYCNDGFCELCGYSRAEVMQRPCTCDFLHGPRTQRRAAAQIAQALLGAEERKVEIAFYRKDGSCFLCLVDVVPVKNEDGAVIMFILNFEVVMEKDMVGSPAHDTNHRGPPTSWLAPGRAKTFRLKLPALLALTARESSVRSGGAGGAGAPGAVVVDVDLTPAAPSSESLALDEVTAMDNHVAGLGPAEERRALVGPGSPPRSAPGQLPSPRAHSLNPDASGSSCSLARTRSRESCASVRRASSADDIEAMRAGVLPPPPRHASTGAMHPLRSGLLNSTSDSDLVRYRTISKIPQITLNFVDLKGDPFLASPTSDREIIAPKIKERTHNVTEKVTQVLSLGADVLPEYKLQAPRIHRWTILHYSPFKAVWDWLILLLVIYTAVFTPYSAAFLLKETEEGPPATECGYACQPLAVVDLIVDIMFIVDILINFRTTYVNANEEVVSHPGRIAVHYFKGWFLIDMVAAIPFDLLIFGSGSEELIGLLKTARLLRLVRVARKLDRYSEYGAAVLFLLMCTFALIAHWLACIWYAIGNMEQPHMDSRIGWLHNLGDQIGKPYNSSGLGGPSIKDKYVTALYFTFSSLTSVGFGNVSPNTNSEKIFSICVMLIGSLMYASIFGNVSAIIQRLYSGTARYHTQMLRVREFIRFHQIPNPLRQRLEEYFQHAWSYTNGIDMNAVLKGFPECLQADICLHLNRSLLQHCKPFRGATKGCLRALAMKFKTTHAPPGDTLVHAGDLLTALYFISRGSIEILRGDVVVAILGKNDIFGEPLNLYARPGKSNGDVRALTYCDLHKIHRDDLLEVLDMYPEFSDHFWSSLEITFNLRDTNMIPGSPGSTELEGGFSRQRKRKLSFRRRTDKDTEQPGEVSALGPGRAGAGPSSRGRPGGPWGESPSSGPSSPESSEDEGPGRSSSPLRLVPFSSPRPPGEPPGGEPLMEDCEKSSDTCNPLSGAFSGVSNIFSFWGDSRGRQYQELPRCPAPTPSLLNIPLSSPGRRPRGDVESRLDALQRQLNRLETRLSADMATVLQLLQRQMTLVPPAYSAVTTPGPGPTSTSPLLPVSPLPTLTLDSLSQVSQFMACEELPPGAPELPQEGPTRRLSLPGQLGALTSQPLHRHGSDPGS
Chain of CYP2C19 (P33261 whole entry): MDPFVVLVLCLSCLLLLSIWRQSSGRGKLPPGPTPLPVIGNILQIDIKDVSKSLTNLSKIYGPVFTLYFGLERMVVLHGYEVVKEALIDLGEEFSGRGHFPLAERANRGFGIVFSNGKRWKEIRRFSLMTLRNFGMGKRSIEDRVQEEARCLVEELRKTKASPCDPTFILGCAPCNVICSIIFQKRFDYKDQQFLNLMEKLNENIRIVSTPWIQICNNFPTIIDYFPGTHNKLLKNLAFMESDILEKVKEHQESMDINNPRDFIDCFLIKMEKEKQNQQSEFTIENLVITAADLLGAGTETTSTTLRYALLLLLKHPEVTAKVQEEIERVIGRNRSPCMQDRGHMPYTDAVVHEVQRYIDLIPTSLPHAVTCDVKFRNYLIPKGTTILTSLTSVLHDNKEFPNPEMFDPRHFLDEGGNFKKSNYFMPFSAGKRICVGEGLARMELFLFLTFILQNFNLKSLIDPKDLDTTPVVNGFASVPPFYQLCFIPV
Chain of CYP2D6 (P10635 whole entry): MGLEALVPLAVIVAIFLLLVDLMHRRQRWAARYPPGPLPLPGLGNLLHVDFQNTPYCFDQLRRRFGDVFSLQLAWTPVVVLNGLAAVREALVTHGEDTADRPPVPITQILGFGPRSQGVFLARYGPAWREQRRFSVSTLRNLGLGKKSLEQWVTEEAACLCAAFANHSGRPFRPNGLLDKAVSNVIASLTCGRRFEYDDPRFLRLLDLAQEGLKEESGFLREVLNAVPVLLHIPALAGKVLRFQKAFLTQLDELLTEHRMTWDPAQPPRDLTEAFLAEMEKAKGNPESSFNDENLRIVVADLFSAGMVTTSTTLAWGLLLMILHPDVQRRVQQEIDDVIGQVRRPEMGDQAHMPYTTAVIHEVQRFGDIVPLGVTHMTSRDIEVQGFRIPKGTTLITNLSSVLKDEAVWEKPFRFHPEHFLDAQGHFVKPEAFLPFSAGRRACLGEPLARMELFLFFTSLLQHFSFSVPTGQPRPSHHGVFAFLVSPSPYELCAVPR
Chain of CYP3A4 (P08684 whole entry): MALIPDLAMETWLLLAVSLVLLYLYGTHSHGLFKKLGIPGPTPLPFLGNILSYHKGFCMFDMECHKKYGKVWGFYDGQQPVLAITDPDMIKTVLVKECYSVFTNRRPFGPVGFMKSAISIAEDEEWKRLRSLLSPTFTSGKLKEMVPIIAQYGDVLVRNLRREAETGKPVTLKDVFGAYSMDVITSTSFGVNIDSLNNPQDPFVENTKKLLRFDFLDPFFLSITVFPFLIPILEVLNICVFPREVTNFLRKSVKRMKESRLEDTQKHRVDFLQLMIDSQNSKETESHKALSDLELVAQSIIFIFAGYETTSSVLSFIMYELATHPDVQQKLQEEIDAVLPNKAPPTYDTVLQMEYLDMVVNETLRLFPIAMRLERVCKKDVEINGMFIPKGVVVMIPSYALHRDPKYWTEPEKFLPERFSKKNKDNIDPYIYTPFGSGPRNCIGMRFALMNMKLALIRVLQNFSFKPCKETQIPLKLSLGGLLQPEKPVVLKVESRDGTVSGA

remaining at 0.5 h, 1 µM [1]: 100% | inhibition at 10 µM (CYP2C9): < 5% | bioavailability [2]: 100% | Drug metabolism (Hepatocyte [3]): 22 ng/mL | inhibition at 10 µM (CYP1A2): < 5% | inhibition at 10 µM (CYP2C19): < 5% | Drug metabolism (Hepatocyte [4]): 50 ng/mL | Drug metabolism (Hepatocyte [5]): 54 ng/mL | inhibition [6]: 67% | Drug metabolism (Hepatocyte [7]): 56 ng/mL | Drug metabolism (Hepatocyte [8]): < 1 ng/mL | Drug metabolism (Hepatocyte [9]): 31 ng/mL | Drug metabolism (Hepatocyte [10]): 30 ng/mL | Drug metabolism (Hepatocyte [12]): 5 ng/mL | half-life [13]: 19 h | Drug metabolism (Hepatocyte [14]): 6 ng/mL | inhibition at 10 µM (CYP2D6): < 5% | Drug metabolism (Hepatocyte [15]): 4 ng/mL | inhibition at 10 µM (CYP3A4): < 5% | clearance [16]: 0.1 mL/min/kg | Drug metabolism (Hepatocyte [17]): < 1 ng/mL | Drug metabolism (Hepatocyte [18]): 3 ng/mL | Drug metabolism (Hepatocyte [19]): 20 ng/mL | Drug metabolism (Hepatocyte [20]): 5 ng/mL | remaining at 1 h, 1 µM [21]: 100% | Drug metabolism (Hepatocyte [22]): 15 ng/mL | Drug metabolism (Hepatocyte [23]): 7 ng/mL | remaining at 2 h [24]: > 99% | Drug metabolism (Hepatocyte [25]): < 1 ng/mL | pKa [26]: 4.4 | Drug metabolism (Hepatocyte [27]): 2 ng/mL | Drug metabolism (Hepatocyte [28]): 3 ng/mL | remaining at 2 h [29]: 30% | Drug metabolism (Hepatocyte [30]): 3 ng/mL | inhibition [31]: 68%
Structure (SMILES): C[C@@H](C(=O)NS(C)(=O)=O)c1ccc(OS(=O)(=O)C(F)(F)F)cc1 [LADARIXIN]
inhibition (INH) [11]: Not Active
